The data set can be described thus: Hansen solubility parameter (SP value and terms) of reagents. It is filed as physicochemical. On the set-up: unit: MPa^0.5. The note with it: SP^2=δD^2+δP^2+δH^2. The source says: The SP value of Hansen solubility parameter herein is a value obtained by dividing the solubility parameter introduced by Hildebrand into three parameters, the dispersion term OD, the polarity term OP, and the hydrogen bond term OH, and plotting a point in a three-dimensional space (Hansen space, HSP space).
The dispersion term δD represents the effect due to dispersion force, the polarity term δP represents the effect due to dipole-dipole force, and the hydrogen bond term OH represents the effect due to hydrogen bond force. […]
δD: The energy derived from dispersion forces between molecules (the dispersion term) δP: The energy derived from polar forces between molecules (the polarity term) δH: The energy derived from hydrogen bond forces between molecules (the hydrogen bond term) The unit of each of the terms is MPa^0.5.
There is a relationship between Hildebrand's SP value and Hansen's HSP as shown below.
(Hildebrand's SP)^2=δD^2+δP^2+δH^2
Suitable examples of the silane coupling agent having a SP value of 15 or more may include the followings. Needless to say, the silane coupling agent used in the present embodiment is not limited to those below.
In turn, `CO[Si](CCCN)(OC)OC` [APTMS, 3-aminopropyltrimethoxysilane] returned an SP value of 15.8.

For the compound `CCO[Si](CCCN)(OCC)OCC` [APTES, 3-aminopropyltriethoxysilane], the SP value came out at 15.2.

`CCO[Si](CCCNCCN)(OCC)OCC` [AEAPTES, 3-(2-aminoethylamino) propyltriethoxysilane] showed an SP value of 15.6. For `CO[Si](CCCNCCN)(OC)OC` [AEAPTMS, 3-(2-aminoethylamino) propyltrimethoxysilane] the value was 16.2; for `CO[Si](CCCNCCCCCCN)(OC)OC` [AHAPTMS, 3-(6-aminohexylamino) propyltrimethoxysilane], 15.3; for `CO[Si](C)(OC)OC` [MTMS, methyltrimethoxysilane], 15.2.

For the origin of these results see patent US20250201546A1, “METHOD FOR PROCESSING SUBSTRATE, KIT FOR PROCESSING SUBSTRATE, AND METHOD FOR MANUFACTURING SEMICONDUCTOR SUBSTRATE” (TOKYO OHKA KOGYO CO., LTD., priority 2023, published 2025).
